Assay results taken from ChEMBL document CHEMBL5291721, “A preclinical secondary pharmacology resource illuminates target-adverse drug reaction associations of marketed drugs” (Nat Commun, 2023).

How the values were obtained:
[1] = biological target: Bile salt export pump (Homo sapiens, UniProt O95342); type: functional
[2] = biological target: T1, Adenosine receptor A1 (Homo sapiens, UniProt P30542)
T1 sequence (P30542 whole entry): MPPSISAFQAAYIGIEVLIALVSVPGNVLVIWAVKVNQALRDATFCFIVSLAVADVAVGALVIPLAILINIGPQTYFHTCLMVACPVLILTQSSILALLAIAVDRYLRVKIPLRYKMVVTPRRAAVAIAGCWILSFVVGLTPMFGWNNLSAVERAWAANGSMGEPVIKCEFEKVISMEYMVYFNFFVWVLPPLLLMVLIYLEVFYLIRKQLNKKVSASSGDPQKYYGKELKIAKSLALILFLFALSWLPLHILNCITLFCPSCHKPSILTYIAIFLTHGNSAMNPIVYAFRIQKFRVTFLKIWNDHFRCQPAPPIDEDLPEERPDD

[3] = biological target: Adenosine receptor A2a (Homo sapiens, UniProt P29274)
[4] = biological target: T2, Adenosine receptor A3 (Homo sapiens, UniProt P0DMS8)
T2 sequence (P0DMS8 whole entry): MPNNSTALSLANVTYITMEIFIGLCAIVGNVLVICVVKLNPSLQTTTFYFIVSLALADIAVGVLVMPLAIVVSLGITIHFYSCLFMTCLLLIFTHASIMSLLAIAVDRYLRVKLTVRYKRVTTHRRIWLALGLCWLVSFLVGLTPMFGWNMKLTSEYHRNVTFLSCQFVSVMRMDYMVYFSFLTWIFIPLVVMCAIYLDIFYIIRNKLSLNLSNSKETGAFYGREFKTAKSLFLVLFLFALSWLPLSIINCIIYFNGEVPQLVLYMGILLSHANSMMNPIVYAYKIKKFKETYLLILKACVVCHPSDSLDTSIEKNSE

[5] = biological target: T3, Alpha-2A adrenergic receptor (Homo sapiens, UniProt P08913); type: functional, cell-based
T3 sequence (P08913 whole entry): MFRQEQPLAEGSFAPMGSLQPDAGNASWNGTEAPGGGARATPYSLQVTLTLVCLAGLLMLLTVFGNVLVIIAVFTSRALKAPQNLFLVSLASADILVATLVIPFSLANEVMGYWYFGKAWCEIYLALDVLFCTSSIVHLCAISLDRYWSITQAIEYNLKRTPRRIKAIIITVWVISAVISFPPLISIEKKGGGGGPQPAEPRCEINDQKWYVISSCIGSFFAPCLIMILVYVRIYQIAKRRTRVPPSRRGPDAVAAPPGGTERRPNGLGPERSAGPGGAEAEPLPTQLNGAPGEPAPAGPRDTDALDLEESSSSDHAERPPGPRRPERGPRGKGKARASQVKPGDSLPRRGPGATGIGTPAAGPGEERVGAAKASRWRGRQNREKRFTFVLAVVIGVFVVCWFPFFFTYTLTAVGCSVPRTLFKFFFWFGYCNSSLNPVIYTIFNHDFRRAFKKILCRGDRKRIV

[6] = biological target: T4, Type-1 angiotensin II receptor (Homo sapiens, UniProt P30556)
T4 sequence (P30556 whole entry): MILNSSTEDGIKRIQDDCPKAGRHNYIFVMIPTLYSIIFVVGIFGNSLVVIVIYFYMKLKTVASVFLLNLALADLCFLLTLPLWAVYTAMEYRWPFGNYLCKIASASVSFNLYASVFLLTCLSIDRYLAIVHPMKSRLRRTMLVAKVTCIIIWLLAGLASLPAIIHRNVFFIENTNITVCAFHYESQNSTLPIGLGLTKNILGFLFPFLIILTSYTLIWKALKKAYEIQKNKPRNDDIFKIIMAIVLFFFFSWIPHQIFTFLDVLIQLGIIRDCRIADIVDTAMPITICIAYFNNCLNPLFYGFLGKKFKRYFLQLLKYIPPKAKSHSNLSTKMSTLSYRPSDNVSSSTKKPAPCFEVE

[7] = biological target: D(1A) dopamine receptor (Homo sapiens, UniProt P21728); type: functional, cell-based
[8] = biological target: Growth hormone secretagogue receptor type 1 (Homo sapiens, UniProt Q92847)
[9] = biological target: T5, 5-hydroxytryptamine receptor 1A (Homo sapiens, UniProt P08908); type: functional, cell-based
T5 sequence (P08908 whole entry): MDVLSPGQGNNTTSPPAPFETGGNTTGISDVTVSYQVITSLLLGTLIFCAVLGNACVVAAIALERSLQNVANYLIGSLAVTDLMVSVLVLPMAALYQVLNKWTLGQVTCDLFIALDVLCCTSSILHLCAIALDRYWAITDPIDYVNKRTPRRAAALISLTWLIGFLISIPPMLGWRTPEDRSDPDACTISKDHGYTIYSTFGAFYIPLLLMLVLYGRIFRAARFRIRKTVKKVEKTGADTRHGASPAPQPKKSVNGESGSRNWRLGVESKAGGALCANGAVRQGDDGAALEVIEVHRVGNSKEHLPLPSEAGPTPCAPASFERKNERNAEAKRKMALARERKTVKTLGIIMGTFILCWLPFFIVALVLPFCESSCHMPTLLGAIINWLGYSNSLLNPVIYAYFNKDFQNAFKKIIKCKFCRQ

[10] = biological target: 5-hydroxytryptamine receptor 2B (Homo sapiens, UniProt P41595); type: functional, cell-based
[11] = biological target: T6, 5-hydroxytryptamine receptor 3A (Homo sapiens, UniProt P46098); type: functional
T6 sequence (P46098 whole entry): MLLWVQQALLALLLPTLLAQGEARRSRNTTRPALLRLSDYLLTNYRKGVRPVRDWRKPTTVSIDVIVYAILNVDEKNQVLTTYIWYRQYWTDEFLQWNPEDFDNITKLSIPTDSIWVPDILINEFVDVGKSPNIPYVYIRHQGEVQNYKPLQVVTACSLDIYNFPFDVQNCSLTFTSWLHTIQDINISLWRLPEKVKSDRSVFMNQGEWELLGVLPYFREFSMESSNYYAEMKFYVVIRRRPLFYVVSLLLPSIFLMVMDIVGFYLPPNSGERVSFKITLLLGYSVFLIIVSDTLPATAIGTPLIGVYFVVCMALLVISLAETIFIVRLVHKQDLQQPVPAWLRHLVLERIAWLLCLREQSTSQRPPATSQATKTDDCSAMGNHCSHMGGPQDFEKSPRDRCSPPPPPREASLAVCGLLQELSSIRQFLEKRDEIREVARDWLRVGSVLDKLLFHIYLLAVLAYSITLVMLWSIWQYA

[12] = biological target: Voltage-gated inwardly rectifying potassium channel KCNH2 (Homo sapiens, UniProt Q12809); type: functional; settings: read-out: AC50
[13] = biological target: Melanocortin receptor 3 (Homo sapiens, UniProt P41968)
[14] = biological target: 3',5'-cyclic-AMP phosphodiesterase 4D (Homo sapiens, UniProt Q08499); type: functional
Further: assay procedure not described here.

Sequence of D(1A) dopamine receptor (P21728 whole entry): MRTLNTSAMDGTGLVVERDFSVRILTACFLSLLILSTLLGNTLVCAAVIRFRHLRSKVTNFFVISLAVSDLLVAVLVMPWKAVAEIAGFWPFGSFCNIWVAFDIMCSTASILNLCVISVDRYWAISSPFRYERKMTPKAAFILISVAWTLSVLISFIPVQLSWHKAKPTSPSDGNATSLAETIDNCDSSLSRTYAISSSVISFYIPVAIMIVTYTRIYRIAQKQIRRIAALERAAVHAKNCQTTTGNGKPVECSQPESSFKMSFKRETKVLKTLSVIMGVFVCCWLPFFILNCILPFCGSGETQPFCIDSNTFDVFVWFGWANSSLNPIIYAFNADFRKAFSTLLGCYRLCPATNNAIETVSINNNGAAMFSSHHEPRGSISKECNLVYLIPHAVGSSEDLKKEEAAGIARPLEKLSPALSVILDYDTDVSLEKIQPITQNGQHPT
Sequence of 5-hydroxytryptamine receptor 2B (P41595 whole entry): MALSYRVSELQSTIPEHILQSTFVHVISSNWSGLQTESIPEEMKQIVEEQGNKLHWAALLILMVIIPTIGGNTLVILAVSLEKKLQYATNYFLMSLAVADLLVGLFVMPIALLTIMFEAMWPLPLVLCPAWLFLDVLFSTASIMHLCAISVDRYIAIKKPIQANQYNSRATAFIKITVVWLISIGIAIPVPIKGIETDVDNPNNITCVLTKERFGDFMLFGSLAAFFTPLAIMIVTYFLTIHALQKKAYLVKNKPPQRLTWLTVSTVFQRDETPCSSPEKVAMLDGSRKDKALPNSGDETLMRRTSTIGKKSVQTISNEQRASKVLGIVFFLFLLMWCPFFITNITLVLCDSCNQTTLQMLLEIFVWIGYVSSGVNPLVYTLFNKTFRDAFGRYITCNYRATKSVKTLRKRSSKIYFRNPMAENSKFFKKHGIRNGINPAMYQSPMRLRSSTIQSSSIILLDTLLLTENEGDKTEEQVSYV
Sequence of Melanocortin receptor 3 (P41968 whole entry): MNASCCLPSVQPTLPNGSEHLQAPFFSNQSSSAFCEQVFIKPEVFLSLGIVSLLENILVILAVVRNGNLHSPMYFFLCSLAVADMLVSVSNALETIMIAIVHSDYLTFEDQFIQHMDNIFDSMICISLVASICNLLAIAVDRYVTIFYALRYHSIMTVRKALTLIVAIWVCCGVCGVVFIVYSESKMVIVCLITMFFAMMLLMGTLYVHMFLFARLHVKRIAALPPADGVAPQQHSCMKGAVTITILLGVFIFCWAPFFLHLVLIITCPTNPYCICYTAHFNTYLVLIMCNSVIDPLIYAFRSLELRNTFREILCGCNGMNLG
Sequence of Voltage-gated inwardly rectifying potassium channel KCNH2 (Q12809 whole entry): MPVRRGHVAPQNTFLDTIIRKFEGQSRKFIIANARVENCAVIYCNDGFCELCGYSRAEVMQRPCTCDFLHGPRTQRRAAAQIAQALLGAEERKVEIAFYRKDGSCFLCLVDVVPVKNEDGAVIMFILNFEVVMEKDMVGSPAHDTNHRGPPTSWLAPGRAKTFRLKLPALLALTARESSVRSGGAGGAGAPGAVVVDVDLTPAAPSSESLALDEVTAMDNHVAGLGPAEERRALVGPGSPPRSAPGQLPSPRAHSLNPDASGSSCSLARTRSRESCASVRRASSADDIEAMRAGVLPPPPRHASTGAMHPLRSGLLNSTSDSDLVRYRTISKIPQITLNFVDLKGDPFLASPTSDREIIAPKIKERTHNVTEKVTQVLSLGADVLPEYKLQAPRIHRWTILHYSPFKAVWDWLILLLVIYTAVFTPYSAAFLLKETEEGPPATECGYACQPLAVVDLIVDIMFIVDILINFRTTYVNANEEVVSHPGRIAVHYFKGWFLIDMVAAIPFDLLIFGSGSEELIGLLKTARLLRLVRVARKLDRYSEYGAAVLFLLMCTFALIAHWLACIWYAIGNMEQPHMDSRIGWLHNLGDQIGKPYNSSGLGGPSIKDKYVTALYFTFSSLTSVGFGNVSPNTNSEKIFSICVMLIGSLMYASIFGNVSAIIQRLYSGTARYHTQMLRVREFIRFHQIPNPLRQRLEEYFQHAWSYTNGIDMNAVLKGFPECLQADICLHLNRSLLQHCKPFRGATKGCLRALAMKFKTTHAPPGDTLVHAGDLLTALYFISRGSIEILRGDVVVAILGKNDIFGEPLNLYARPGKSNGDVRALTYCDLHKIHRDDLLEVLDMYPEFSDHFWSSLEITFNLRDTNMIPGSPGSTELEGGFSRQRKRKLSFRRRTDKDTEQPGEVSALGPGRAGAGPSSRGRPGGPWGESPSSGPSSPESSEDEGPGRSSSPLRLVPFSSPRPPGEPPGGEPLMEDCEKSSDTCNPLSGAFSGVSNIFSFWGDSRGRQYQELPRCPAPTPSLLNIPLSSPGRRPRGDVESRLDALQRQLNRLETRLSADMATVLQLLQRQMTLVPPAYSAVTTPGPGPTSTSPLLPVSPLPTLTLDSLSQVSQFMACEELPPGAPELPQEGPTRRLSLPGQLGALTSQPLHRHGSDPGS
Sequence of 3',5'-cyclic-AMP phosphodiesterase 4D (Q08499 whole entry): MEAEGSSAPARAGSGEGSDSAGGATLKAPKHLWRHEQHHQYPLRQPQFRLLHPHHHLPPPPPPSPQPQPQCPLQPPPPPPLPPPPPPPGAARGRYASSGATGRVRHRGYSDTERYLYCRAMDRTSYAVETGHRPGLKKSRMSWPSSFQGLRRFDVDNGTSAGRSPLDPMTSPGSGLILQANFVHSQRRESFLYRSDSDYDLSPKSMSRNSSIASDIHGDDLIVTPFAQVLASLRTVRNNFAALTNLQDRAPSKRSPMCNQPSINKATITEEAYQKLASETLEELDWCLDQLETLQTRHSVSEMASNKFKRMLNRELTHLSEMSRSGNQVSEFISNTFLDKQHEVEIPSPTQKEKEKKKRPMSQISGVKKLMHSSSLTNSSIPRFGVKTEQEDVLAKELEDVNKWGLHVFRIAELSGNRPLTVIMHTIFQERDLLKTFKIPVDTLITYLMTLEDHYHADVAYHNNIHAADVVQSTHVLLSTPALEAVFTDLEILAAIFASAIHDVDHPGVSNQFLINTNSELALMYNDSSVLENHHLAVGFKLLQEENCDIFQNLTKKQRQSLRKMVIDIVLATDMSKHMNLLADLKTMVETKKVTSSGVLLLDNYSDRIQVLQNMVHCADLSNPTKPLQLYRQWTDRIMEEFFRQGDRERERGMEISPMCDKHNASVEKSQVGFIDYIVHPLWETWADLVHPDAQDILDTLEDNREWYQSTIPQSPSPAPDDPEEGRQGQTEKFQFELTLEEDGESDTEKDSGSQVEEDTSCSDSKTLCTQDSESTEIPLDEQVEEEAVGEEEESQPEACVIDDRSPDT
Sequence of Adenosine receptor A2a (P29274 whole entry): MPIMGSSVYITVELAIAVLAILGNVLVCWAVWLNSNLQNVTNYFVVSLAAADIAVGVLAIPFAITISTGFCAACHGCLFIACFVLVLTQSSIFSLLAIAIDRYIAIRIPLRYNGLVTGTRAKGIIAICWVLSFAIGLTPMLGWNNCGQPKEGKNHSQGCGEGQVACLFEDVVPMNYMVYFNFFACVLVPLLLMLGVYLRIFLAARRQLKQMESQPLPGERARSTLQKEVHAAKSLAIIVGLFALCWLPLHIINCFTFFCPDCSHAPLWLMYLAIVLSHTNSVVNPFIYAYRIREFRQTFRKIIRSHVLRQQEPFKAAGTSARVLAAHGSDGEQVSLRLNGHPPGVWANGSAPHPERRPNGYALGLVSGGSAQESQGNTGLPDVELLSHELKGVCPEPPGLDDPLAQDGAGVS
Sequence of Growth hormone secretagogue receptor type 1 (Q92847 whole entry): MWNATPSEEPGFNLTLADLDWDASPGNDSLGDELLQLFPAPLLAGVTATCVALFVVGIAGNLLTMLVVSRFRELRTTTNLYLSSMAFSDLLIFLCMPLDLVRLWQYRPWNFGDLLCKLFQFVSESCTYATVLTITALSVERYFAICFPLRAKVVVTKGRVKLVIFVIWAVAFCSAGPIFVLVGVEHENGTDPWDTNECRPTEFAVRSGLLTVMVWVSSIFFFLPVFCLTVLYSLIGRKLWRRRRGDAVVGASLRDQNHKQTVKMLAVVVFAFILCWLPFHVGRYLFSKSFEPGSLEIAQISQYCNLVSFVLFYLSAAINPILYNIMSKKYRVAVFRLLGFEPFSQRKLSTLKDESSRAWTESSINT

| AC50 [1] | AC50 [2] | AC50 [3] | AC50 [4] | AC50 [5] | AC50 [6] | AC50 [7] | AC50 [8] | AC50 [9] | AC50 [10] | AC50 [11] | AC50 [13] | AC50 [14] | SMILES | AC50 [12] |
| --- | --- | --- | --- | --- | --- | --- | --- | --- | --- | --- | --- | --- | --- | --- |
| > 300 µM | > 30 µM | > 30 µM | > 30 µM | > 30 µM | > 30 µM | > 30 µM | > 30 µM | > 30 µM | > 30 µM | > 30 µM | > 30 µM | > 30 µM | CC(C)C[C@H](NC(=O)[C@H](Cc1ccccc1)NC(=O)c1cnccn1)B(O)O [BORTEZOMIB] | > 30 µM |
| > 300 µM | > 30 µM | > 30 µM | > 30 µM | > 30 µM | > 30 µM | > 30 µM | > 30 µM | > 30 µM | > 30 µM | > 30 µM | > 30 µM | > 30 µM | Nc1c2c(nc3ccccc13)CCCC2O (stereo not drawn) [VELNACRINE] | 25 µM |
| > 300 µM | > 30 µM | > 30 µM | 11 µM | > 30 µM | > 30 µM | > 30 µM | > 30 µM | > 30 µM | > 30 µM | > 30 µM | > 30 µM | 1.8 µM | N[C@@H](Cc1cc(I)c(Oc2cc(I)c(O)c(I)c2)c(I)c1)C(=O)O [LEVOTHYROXINE] | > 30 µM |
| 74 µM | > 30 µM | > 30 µM | > 30 µM | 18 µM | > 30 µM | > 30 µM | > 30 µM | 18 µM | > 30 µM | > 30 µM | > 30 µM | > 30 µM | COc1cc2c(cc1OC)C1CC(=O)C(CC(C)C)CN1CC2 (stereo not drawn) [TETRABENAZINE] | > 30 µM |
| > 300 µM | > 30 µM | > 30 µM | > 30 µM | > 10 µM | > 30 µM | > 10 µM | > 30 µM | > 10 µM | > 10 µM | > 30 µM | > 30 µM | > 30 µM | C[C@]12CCC(=O)C=C1CC[C@H]1[C@@H]3CC[C@](O)(C(=O)CO)[C@@]3(C)C[C@H](O)[C@@]12F [FLUDROCORTISONE] | > 30 µM |

| SMILES | AC50 [1] | AC50 [2] | AC50 [3] | AC50 [4] | AC50 [5] | AC50 [6] | AC50 [7] | AC50 [8] | AC50 [9] | AC50 [10] | AC50 [11] | AC50 [13] | AC50 [14] | AC50 [12] |
| --- | --- | --- | --- | --- | --- | --- | --- | --- | --- | --- | --- | --- | --- | --- |
| C[C@H](CCC(=O)O)[C@H]1CC[C@H]2[C@@H]3[C@H](O)C[C@@H]4C[C@H](O)CC[C@]4(C)[C@H]3CC[C@]12C [CHENODIOL] | 13 µM | > 30 µM | > 30 µM | > 30 µM | 3 µM | > 30 µM | > 30 µM | > 30 µM | > 30 µM | > 30 µM | > 30 µM | > 30 µM | > 30 µM | > 30 µM |
| CC[N+](CC)(CCNC(=O)C(=O)NCC[N+](CC)(CC)Cc1ccccc1Cl)Cc1ccccc1Cl [AMBENONIUM] | > 300 µM | > 30 µM | > 30 µM | > 30 µM | > 30 µM | > 30 µM | > 30 µM | > 30 µM | > 30 µM | > 30 µM | > 30 µM | > 30 µM | > 30 µM | 7.8 µM |
